Assay results taken from US11576914B2, “Drug for treating or preventing disorder caused by TGF-β signaling, and application thereof” (THE DOSHISHA, priority 2017, dated 2023).
Several values for one entry are separate records, joined by “and”; a condition that tells them apart may be missing. Identical values can stand only once. Entries after “also recorded” stand apart in the source; their conditions may differ.

How the values were obtained:
[1] = tested on: rabbits; test: Eye irritation testing (AKP-001 instillation); format: in vivo, rabbit
Procedure: Rabbits that met the above criteria were used in the testing. The testing was carried out using a total of 4 rabbits. Fifty μl of 0.1 mM AKP-001 was instilled into the right eyes of the rabbits, and the eyes were maintained in a closed state for 30 seconds. The left eyes were instilled with a vehicle in the same manner. This operation was performed every 30 minutes and 10 times in total.
The anterior eye part was observed before and after the instillation using a slit lamp microscope (SL-D7, Topcon). The anterior eye part was stained with fluorescein sodium test paper (Showa Yakuhin Kako Co., Ltd.) and observed with a slit lamp microscope with regard to the presence or absence of corneal epithelial disorder. Further, the corneal thickness, corneal shape, and corneal volume thereof were analyzed using Pentacam® HR (OCULUS). The corneal endothelium was observed using a scanning slit-type, contact-type corneal endothelium specular microscope (Konan Medical, Inc.). Further, the central corneal thickness was measured using an ultrasonic pachymeter (SP-100, Tomey Corporation), and the intraocular pressure was measured using Tonovet® (ME Technica).
Corneal transparency was evaluated by the following Grading.
Opacity: degree of turbidity (the most turbid area is read.)

[2] = tested on: immortalized human corneal endothelial cells (iHCEC); test: Cell damage by ER stress induced by thapsigargin; format: cell-based; details: 24 hours pretreatment, 20 μM thapsigargin 3 hours
Procedure: The medium was removed from a culture dish in which immortalized human corneal endothelial cells (iHCEC) were being cultured, and the cells were supplemented with 1×PBS (−) that was preheated to 37° C., and were washed. This operation was repeated twice. The cells were supplemented again with 1×PBS (−) and incubated for 5 minutes at 37° C. (5% CO2). After removing the PBS (−), the cells were supplemented with 0.05% Trypsin-EDTA (Nacalai Tesque, 32778-34) and incubated for 5 minutes at 37° C. (5% CO2). The cells were then suspended in a medium, and collected by centrifugation at 1500 rpm for 3 minutes. DMEM (Nacalai Tesque, 08456-36)+10% FBS (Biowest, S1820-500)+1% P/S (Nacalai Tesque, 26252-94) was used as the medium. Immortalized human corneal endothelial cells (lot: iHCEC1-1) were seeded on a 12-well plate at a ratio of 8×10^4 cells per well and cultured for 48 hours at 37° C. (5% CO2) while using DMEM+10% FBS+1% P/S as the medium. The medium was then removed, and each inhibitor was added to culture the cells for 24 hours using DMEM+2% FBS+1% P/S as the medium. The medium was then removed. A medium (DMEM+2% FBS+1% P/S) containing 20 μM thapsigargin (Wako, 209-17281) and AKP-001 was added to culture the cells for 3 hours. Then, the cell morphology and apoptosis were observed using a phase contrast microscope.

[3] = tested on: caspase 3/7; test: Caspase-Glo 3/7 Assay in human corneal endothelial cells in the presence of AKP-001; format: cell-based; details: 24 hours
Procedure: Cultured human corneal endothelial cells were seeded at a rate of 1×10^4 per well in a 96-well plate coated with laminin-511E8, and the cells were cultured until reaching confluence at 37° C. (5% CO^2). For the medium, used was OptiMEM-I (invitrogen, 31985-088)+8% FBS (Thermo, SH30084.03)+5 ng/mL epidermal growth factor (invitrogen, PHG0311)+20 μg/mL L-ascorbic acid 2-sesquimagnesium phosphate hydrate (SIGMA, A8960)+200 mg/L calcium chloride dihydrate (SIGMA, C7902)+0.08% chondroitin sulfate (Wako Pure Chemical Industries, Ltd., 032-14613)+50 μg/mL gentamicin (invitrogen, 15710-064)+1 μM SB431542 (WAKO, 192-16541)+10 μM SB203580 (Cayman, 13067).
Upon reaching confluence, the culturing was further conducted for one more week with OptiMEM-I (invitrogen, 31985-088)+8% FBS (Thermo, SH30084.03)+20 μg/mL+200 mg/L calcium chloride dihydrate (SIGMA, C7902)+0.08% chondroitin sulfate (Wako Pure Chemical Industries, Ltd., 032-14613)+50 μg/mL gentamicin (invitrogen, 15710-064).
After one week, the medium was removed, and a medium with 0.1 μM, 0.3 μM, 1 μM, 3 μM, 10 μM, 30 μM and 100 μM AKP-001 included therein was added, followed by culturing for 24 hours. For the medium, used was OptiMEM-I (invitrogen, 31985-088)+8% FBS (Thermo, SH30084.03)+20 μg/mL+200 mg/L calcium chloride dihydrate (SIGMA, C7902)+0.08% chondroitin sulfate (Wako Pure Chemical Industries, Ltd., 032-14613)+50 μg/mL gentamicin (invitrogen, 15710-064).
After the observation, the caspase 3/7 activity was measured by Caspase-Glo 3/7 Assay according to the following procedure. The medium was discarded to 50 μl per well, and Caspase Glo 3/7 Assay Reagent (mixture of Caspase-Glo 3/7 Assay Buffer and Caspase-Glo 3/7 Assay Substrate) (Promega, G8091) solution was added to the 50 μl/well to reach 1:1 with the medium. The operations from this point on were conducted while light was blocked. […] After standing, 80 μl was transferred to an Assay plate (Corning, 3912, Assay plate 96 well, white polystyrene), and the […] was measured using GloMax-Multi Detection System (Promega, E7051).

[4] = prior to and after 10 instillations

Question: How did the “corneal thickness (Pentacam HR)” value ([1]; 0.1 mM instilled 10 times) turn out when `O=C(Cc1c(F)cccc1Cl)Nc1onc(-c2ccc(F)cc2)c1-c1ccncn1` [AKP-001, 5-[(2-chloro-6-fluorophenyl)acetylamino]-3-(4-fluorophenyl)-4-(4-pyrimidinyl)isoxazole] was run?
Answer: Its value is “No obvious changes”.

Question: And the “epithelial disorder of the keratoconjunctiva, fluorescein staining” value ([1]; 0.1 mM instilled 10 times)?
Answer: Its value is “no epithelial disorder of the stained keratoconjunctiva was observed”.

Question: And the hyperemia ([1]; 0.1 mM instilled 10 times)?
Answer: The hyperemia was “no hyperemia was observed”.

Question: And the “inflammation of the anterior eye part” value ([1]; 0.1 mM instilled 10 times)?
Answer: The value was “no inflammation or the like was observed; also recorded: no inflammation of the anterior eye part was observed”.

Question: And the “shape of the cornea (Scheimpflug images)” value ([1]; 0.1 mM instilled 10 times)?
Answer: The value was “No obvious change”.

Question: And the “corneal endothelium, specular microscope images” value ([1]; 10 instillations)?
Answer: The value was “No obvious changes”.

Question: And the “cornea, slit lamp microscope” value ([1]; 50 μl of 0.1 mM instilled 10 times every 30 minutes)?
Answer: The value was “transparent”.

Question: What about the corneal transparency score ([1]; before and after 10 instillations, all the corneas) of the same compound?
Answer: Its corneal transparency score is “zero and 0”.

Question: What about the “central corneal thickness (ultrasonic pachymeter)” value [1, 4] of the same compound?
Answer: The value was “No significant changes”.

Question: And the “corneal volume (10 mm diameter, Pentacam HR)” value [1, 4]?
Answer: The value was “No significant changes”.

Question: And the “intraocular pressure (Tonovet)” value [1, 4]?
Answer: The value was “No significant changes”.

Question: What about the “damage to the corneal endothelial cells” value [2] of the same compound?
Answer: Its value is “suppression of damage to the corneal endothelial cells was observed”.

Question: And the “caspase 3/7 activity compared to the control group” value ([3]; 0.1 μM, 0.3 μM, 1 μM and 3 μM)?
Answer: Its value is “no significant difference”.

Question: And the “caspase 3/7 activity compared to the control group” value ([3]; 10 μM, 30 μM and 100 μM)?
Answer: The value was “significantly activated”.

Question: And the “concentrations at which no damage to the cells is caused” value [3]?
Answer: Its value is at most 10 µM.
